The values that follow are results of earlier work, collected in paper PMC10766353, “Oral FXIIa inhibitor KV998086 suppresses FXIIa and single chain FXII mediated kallikrein kinin system activation” (Frontiers in Pharmacology, 2023).

Like-named read-outs stand apart in the source and are kept apart here.

Data set [1] concerns HAE attacks. Further details: method as in Craig et al., 2023. Conditions: six-month study, ref Craig et al., 2023.
Data set [2] concerns HAE attacks. Further details: method as in Banerji et al., 2018. The settings on record: 26-week phase 3 study; ref Banerji et al., 2018.

For the molecule “garadacimab: a monoclonal antibody that inhibits FXIIa”, in data set [1] (monthly administration), the HAE attack reduction is on record as 87%. The patients attack free in data set [1] was 62%.

B1: lanadelumab: monoclonal antibody PKa inhibitor (antibody, chains of the INN, looked up, V domains shown)
VH: EVQLLESGGGLVQPGGSLRLSCAASGFTFSHYIMMWVRQAPGKGLEWVSGIYSSGGITVYADSVKGRFTISRDNSKNTLYLQMNSLRAEDTAVYYCAYRRIGVPRRDEFDIWGQGTMVTVSS
VL: DIQMTQSPSTLSASVGDRVTITCRASQSISSWLAWYQQKPGKAPKLLIYKASTLESGVPSRFSGSGSGTEFTLTISSLQPDDFATYYCQQYNTYWTFGQGTKVEIK
Turning to B1, in data set [2], the HAE attack reduction was 87% and the patients attack free is recorded as 44%.
